Here are results for 13 molecules from ChEMBL document CHEMBL1201862, “PubChem BioAssay data set” (2004).

The nature of test [1]: Counterscreen for inhibitors of Trypanosoma brucei methionyl tRNA synthetase (MetRS): Luminescence-based cell-based high throughput dose response assay to identify compounds that are cytotoxic to Jurkat human T lymphocyte cells. It counts as functional. For orientation: The purpose of a counterscreen is to sort out artefacts and off-target activity.
A short description of test [2]: Late stage counterscreen for inhibitors of Trypanosoma brucei methionyl tRNA synthetase (MetRS): Luminescence-based cell-based high throughput dose response assay to identify compounds that are cytotoxic to Jurkat human T lymphocyte cells. Type of test: functional.
In test [3] the target is T1, Methionyl-tRNA synthetase, putative (Trypanosoma brucei brucei, UniProt Q38C91).
T1 sequence (Q38C91 whole entry): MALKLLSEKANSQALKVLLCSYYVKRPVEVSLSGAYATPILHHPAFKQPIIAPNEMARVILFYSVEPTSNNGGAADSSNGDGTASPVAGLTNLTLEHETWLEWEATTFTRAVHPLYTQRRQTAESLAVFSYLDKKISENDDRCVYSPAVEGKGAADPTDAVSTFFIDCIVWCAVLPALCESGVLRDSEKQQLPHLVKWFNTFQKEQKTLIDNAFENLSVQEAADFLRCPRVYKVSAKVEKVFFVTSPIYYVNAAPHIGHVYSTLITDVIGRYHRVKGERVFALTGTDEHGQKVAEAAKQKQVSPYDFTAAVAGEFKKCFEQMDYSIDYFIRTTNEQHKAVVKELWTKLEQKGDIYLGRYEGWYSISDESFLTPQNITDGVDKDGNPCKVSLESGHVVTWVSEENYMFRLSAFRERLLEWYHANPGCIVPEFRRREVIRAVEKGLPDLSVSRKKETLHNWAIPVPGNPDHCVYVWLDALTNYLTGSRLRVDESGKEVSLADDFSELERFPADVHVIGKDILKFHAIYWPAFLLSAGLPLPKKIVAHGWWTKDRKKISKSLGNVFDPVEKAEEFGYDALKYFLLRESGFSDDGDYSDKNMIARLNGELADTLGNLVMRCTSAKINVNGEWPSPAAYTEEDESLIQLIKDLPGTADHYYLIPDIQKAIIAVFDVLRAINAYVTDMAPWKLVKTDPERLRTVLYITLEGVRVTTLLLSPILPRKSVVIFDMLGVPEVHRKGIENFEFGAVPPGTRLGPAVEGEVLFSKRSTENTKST
It counts as functional, Trypanosoma brucei brucei strain 927/4 GUTat10.1.

In test [4] the target is T1, Methionyl-tRNA synthetase, putative. It counts as functional, Trypanosoma brucei brucei strain 927/4 GUTat10.1. The source holds these as a separate data set.
The nature of test [5]: P. falciparum Dd2 growth inhibitors, dose response, SYBR Green, cherry-picked samples (AID 1159567). Type of test: functional, cell-based.
Test [6] can be described thus: growth inhibition of PfATP4-mutant resistant parasites – NITD609-resistant line, SYBR Green, dry powder, dose response (AID 1159571).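 Note: parasites synchronized at ring stage by sorbitol before testing.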 It counts as functional, cell-based.
The nature of test [7]: Dd2 malaria parasite growth inhibition potency – SYBR Green, dry powder samples, dose response (AID 1159566).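 Note: potency for growth inhibition with lower SYBR green DNA signal.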 It counts as functional, cell-based.
Test [8] is described as follows: toxicity to human HepG2 hepatoma cells – cell-based, plate reader, dry powder samples, cytotoxicity control, dose response (AID 1159569).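 Note: inhibitor potency with signal falling toward the positive control level.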 Type of test: functional.
Test [9] in a line: toxicity to human hepatoma HepG2 cells – cell-based, cherry-picked samples, cytotoxicity control, dose response (AID 1159577). It counts as functional.
The nature of test [10]: growth inhibition of yeast DHODH-expressing 3D7 parasites – SYBR Green, dry powder samples, dose response (AID 1159570).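 Note: parasite growth measured after 72 hours of compound exposure.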 It counts as functional, cell-based.
The nature of test [11]: Dd2 parasite growth inhibition in erythrocytes – SYBR Green, dry powder samples, set 9, dose response (AID 1159568). It counts as functional, cell-based.
In another test the test system is Vero. Briefly: mammalian cell viability reduction – secondary assay, cytotoxicity control for West Nile virus antiviral project, dose response (AID 1650). It counts as functional. Conditions: Chlorocebus sabaeus.
Test [12] concerns the target T2, SUMO-activating enzyme (Homo sapiens, UniProt Q9UBT2). The test is described as follows: blockers of UBC9-mediated SUMO conjugation – biochemical, AlphaScreen, SUMOylation inhibitor project, confirmation (AID 2018). Type of test: functional.
Test [13] deals with T2, SUMO-activating enzyme. The test is described as follows: blockers of SAE1/SAE2–UBC9 SUMO transfer – biochemical, HTRF, uHTS, primary screen (AID 2006). Type of test: protein-complex assay. Background: TR-FRET usually uses a lanthanide donor and a delayed reading to cut background.
The target in test [14] is Bifunctional protein GlmU (Mycobacterium tuberculosis, UniProt P9WMN3). The test is described as follows: Inhibitors of Mycobacterial Glucosamine-1-phosphate acetyl transferase (GlmU). Secondary screen. Set-up: species or system Mycobacterium tuberculosis H37Rv.
Test [15] deals with Eukaryotic translation initiation factor 4E (Mus musculus, UniProt P63073). The test is described as follows: blockers of eIF4G binding by eIF4E – biochemical, TR-FRET, dose response (AID 855).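 Note: potency for disrupting eIF4E binding to eIF4GI seen as loss of FRET.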 Type of test: functional.
The target in test [16] is E3 ubiquitin-protein ligase Mdm2 (Homo sapiens, UniProt Q00987). The test is described as follows: MDM2-luc reporter signal enhancers, multi-concentration potency testing, MDM2 ubiquitin-protein ligase inhibitor program, whole-cell format, luminescence detection, 384-well microplate (AID 1394).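 Note: MDM2 E3 inhibitors raise luminescence so EC50 is for signal enhancement.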 It counts as functional.
Test [17] concerns the target T3, Bcl-2-related protein A1 (Mus musculus, UniProt Q07440).
T3 sequence (Q07440 whole entry): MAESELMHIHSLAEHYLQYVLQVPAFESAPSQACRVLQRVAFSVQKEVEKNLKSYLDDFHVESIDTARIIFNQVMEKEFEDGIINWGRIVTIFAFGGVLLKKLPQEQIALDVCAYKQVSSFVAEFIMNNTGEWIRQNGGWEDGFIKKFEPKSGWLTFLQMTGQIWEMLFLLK
The test is described as follows: small-molecule antagonists of Bfl-1/BH3 interaction – biochemical, TR-FRET, mouse Bfl-1, confirmation (AID 621).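 Note: TR-FRET binding of GST-Bfl-1 to FITC-labelled Bid peptide via terbium antibody.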

Test [18] addresses Glyceraldehyde-3-phosphate dehydrogenase (Homo sapiens, UniProt P04406).
Test [19] deals with T3, Bcl-2-related protein A1. Briefly: Bfl-1 binding inhibitors, SAR follow-up, biochemical, fluorescence polarization (AID 1070).
Test [20] addresses T4, Replicative DNA helicase DnaB (Mycobacterium tuberculosis, UniProt P9WMR3).
T4 sequence (P9WMR3 whole entry): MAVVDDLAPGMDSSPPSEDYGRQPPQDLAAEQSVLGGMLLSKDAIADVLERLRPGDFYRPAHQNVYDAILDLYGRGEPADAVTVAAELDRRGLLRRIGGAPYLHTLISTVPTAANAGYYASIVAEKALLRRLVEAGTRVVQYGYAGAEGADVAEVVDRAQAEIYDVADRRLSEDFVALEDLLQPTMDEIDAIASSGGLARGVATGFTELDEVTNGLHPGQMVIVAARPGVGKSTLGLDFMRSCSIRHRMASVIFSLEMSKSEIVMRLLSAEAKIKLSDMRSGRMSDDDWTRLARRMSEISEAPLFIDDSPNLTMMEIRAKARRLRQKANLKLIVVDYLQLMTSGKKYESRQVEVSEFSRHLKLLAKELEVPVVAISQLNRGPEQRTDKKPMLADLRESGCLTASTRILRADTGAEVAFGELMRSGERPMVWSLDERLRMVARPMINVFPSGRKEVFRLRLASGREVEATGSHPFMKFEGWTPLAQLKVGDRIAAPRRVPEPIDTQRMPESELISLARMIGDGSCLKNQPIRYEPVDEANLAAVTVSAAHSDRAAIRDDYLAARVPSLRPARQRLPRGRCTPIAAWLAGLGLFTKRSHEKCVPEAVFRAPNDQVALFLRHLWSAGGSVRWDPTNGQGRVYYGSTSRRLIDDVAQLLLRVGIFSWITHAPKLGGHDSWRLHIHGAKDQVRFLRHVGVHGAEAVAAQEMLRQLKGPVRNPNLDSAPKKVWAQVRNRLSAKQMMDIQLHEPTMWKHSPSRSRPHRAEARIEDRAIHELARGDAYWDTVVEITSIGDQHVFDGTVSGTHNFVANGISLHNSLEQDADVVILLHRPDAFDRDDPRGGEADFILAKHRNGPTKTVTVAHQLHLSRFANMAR
Briefly: DnaB intein splicing inhibitors, dose response, biochemical, cell-free fluorescence (AID 449749). Type of test: functional.

The next test deals with T5, Protein RecA (Mycobacterium tuberculosis, UniProt P9WHJ3).
T5 sequence (P9WHJ3 whole entry): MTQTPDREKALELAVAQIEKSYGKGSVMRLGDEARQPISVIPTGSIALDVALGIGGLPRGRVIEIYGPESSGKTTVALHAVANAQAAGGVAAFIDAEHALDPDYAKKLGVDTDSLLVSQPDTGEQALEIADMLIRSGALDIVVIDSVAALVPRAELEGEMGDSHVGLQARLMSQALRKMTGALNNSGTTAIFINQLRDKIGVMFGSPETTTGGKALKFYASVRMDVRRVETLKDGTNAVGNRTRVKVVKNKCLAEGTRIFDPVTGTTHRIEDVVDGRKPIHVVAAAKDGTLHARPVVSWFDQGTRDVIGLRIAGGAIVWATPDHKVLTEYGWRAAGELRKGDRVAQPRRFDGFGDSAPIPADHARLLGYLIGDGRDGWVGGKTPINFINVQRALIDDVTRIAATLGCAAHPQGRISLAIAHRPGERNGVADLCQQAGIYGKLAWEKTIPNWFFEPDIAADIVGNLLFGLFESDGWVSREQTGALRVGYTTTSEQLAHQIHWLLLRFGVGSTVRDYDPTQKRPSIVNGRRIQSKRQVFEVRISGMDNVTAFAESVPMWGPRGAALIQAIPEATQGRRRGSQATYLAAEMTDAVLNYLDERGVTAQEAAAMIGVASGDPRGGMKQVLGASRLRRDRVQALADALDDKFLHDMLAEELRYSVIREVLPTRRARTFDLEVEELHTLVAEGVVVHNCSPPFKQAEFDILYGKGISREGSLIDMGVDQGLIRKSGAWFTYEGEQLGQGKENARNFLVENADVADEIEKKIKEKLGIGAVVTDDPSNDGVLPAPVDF
The test is described as follows: Fluorescence Cell-Free Homogeneous Dose Retest to Identify Inhibitors of RecA-Intein Splicing Activity. [Related pubchem assays (depositor defined):AID2097, AID2223, AID489010, AID492950]. Type of test: functional.

A further test deals with Genome polyprotein (dengue virus type 2, UniProt P29990). The test is described as follows: flavivirus cap methylation enzyme inhibition – biochemical, confirmation dose response, primary screen (AID 588689). It counts as functional.

Active and inactive are the calls of the source.

T2 sequence (Q9UBE0 whole entry): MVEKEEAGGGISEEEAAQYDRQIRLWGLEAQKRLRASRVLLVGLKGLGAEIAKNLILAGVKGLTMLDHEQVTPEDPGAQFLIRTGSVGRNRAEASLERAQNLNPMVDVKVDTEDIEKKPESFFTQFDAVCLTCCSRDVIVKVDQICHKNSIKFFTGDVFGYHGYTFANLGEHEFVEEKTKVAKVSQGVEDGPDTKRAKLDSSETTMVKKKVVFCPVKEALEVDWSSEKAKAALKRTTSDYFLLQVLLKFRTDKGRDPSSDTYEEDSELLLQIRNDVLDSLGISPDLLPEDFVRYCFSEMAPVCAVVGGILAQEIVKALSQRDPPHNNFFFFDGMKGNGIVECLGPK
T2 sequence (Q9UBT2 whole entry): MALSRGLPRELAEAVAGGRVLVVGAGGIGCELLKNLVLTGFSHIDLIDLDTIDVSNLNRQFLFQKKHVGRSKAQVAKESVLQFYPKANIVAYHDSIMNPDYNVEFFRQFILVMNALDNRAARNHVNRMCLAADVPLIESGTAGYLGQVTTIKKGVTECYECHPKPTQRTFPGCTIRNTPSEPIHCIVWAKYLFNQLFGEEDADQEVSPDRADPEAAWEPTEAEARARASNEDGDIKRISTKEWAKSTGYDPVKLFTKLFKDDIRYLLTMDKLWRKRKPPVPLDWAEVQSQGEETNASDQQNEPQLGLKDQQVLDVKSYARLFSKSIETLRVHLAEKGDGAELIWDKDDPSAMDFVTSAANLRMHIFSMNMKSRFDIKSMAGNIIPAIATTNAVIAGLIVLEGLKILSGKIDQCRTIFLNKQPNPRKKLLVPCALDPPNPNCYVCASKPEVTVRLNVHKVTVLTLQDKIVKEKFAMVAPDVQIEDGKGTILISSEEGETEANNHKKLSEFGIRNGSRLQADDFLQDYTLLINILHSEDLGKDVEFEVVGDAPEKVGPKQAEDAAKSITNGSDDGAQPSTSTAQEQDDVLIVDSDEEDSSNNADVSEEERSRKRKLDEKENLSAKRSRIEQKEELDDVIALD
Bifunctional protein GlmU, sequence (P9WMN3 whole entry): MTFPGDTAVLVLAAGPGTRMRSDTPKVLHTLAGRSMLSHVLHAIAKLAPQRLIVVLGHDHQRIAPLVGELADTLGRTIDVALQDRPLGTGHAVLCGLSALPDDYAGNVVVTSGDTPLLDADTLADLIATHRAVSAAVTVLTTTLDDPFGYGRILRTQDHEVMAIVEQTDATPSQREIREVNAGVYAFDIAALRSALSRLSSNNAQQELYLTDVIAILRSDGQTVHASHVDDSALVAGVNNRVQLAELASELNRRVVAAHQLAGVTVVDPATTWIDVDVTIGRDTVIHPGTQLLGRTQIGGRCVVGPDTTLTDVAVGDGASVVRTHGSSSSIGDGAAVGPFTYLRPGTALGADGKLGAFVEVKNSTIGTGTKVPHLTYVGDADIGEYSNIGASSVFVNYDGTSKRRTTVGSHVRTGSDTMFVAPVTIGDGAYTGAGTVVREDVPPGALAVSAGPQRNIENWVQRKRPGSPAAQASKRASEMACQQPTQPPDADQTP
Glyceraldehyde-3-phosphate dehydrogenase, sequence (P04406 whole entry): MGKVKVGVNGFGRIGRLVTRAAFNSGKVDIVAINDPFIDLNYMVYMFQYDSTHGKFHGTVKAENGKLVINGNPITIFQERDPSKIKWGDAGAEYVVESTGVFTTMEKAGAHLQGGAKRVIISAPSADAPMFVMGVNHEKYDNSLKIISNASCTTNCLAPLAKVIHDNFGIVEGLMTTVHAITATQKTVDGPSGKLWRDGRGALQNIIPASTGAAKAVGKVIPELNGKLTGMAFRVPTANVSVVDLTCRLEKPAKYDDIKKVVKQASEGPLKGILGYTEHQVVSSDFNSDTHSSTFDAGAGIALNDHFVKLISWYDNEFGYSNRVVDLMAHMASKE
E3 ubiquitin-protein ligase Mdm2, sequence (Q00987 whole entry): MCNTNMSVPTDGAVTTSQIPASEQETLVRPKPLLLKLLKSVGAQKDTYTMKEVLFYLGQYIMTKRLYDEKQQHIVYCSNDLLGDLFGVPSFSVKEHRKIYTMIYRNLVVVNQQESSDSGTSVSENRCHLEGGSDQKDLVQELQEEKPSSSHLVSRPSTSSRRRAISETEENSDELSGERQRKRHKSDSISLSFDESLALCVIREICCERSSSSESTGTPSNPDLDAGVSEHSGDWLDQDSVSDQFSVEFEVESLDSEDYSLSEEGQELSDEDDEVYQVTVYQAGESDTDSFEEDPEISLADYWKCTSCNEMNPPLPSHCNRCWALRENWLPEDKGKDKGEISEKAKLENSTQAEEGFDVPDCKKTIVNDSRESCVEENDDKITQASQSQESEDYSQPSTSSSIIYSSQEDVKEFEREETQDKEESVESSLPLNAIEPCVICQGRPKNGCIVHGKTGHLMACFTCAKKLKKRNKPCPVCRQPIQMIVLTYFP
Eukaryotic translation initiation factor 4E, sequence (P63073 whole entry): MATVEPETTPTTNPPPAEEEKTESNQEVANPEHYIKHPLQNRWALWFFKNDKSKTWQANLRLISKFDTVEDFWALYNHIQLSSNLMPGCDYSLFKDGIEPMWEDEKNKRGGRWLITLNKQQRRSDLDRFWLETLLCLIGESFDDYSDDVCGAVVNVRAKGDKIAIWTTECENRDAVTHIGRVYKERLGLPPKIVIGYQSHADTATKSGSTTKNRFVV
Genome polyprotein, sequence (P29990 2492-3391 limits assumed): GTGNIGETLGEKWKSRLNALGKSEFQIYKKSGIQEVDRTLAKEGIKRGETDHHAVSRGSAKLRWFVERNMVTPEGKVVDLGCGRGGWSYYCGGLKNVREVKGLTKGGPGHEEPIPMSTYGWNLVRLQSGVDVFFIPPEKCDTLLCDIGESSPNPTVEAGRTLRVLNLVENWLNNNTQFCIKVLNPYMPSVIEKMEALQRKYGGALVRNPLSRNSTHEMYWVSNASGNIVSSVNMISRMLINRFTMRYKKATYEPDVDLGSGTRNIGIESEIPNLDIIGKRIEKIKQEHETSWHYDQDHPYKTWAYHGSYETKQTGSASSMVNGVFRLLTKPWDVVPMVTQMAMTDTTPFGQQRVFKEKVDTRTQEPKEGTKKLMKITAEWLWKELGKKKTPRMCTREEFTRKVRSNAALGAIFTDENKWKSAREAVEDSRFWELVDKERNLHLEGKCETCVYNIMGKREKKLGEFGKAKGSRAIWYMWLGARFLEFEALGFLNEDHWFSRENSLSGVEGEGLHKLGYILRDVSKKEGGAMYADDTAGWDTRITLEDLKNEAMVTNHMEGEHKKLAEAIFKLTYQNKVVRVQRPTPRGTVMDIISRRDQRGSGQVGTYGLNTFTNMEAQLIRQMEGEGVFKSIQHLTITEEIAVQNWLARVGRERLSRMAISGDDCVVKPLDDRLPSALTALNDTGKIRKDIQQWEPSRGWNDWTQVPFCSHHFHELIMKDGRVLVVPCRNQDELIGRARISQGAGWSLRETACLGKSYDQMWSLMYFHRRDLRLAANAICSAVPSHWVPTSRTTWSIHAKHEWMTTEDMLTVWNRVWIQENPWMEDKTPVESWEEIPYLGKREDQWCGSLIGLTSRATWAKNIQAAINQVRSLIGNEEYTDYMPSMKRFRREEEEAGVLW

One may read the IC50 as the concentration needed to halve the response being measured. Regarding `O=C(NCc1nc2ccccc2[nH]1)C1=C[C@@H](c2ccc(Br)cc2)C[C@@H](OCc2ccc(CO)cc2)O1`, the IC50 was 33.7 µM (inactive) in test [1], 66.6 µM (inactive) in test [2], 1.33 µM (active) in test [3] and 0.498 µM (active) in [4].
By AC50 is commonly meant the midpoint of the concentration-response curve, whichever way the signal moves. Regarding `COc1ccc2c3c([nH]c2c1)[C@H](CO)N(C(=O)CN(C)C)CC31CCN(CC2CCCCC2)CC1`, the AC50 in test [5] was 0.644 µM (active); in test [6], 1.12 µM (active); in test [7], 0.433 µM (active); in test [8] it was 19.1 µM (active); in test [9], > 39 µM (inactive); in test [10], 0.0468 µM (active).
On to `C[C@H]1CN([C@@H](C)CO)C(=O)c2cccc(NC(=O)c3ccc(-c4nccs4)cc3)c2O[C@H]1CN(C)C(=O)Nc1ccc(C(F)(F)F)cc1`, for which the AC50 in test [11] was 8.06 µM (active).
What is called CC50 is the concentration giving 50% cytotoxicity. Take `Cc1ccccc1OCCNc1cc(N2CCN(CCO)CC2)ccc1[N+](=O)[O-]`: the CC50 in the test with Vero is 19.4 µM (active).
For the molecule `O=C(O)CCCCC1CCSS1` (stereo not drawn) [LIPOIC ACID, ALPHA], the IC50 on SUMO-activating enzyme [12] was 0.62 µM (active); on SUMO-activating enzyme [13], 4.74 µM (active); in test [14] it was 3.91 µM (active); in [15], 16.6 µM (active).
By EC50 is commonly meant the concentration needed to bring the measured effect to its halfway point. As for `OC(c1nnc(-c2ccccc2)o1)c1cccs1` (centres undefined), in [16], the EC50 is 441 µM (not active).
As to `O=C1C(Cl)=C(N2CCOCC2)C(=O)N1c1ccc(Cl)cc1Cl`, the 50% inhibitory concentration (IC50) against Bcl-2-related protein A1 [17] was > 100 µM (not active); in test [18], > 10 µM (inconclusive); on Bcl-2-related protein A1 [19] it was > 100 µM (not active).
For `O=C1C(Cl)=C(Nc2ccccc2O)C(=O)N1CCc1ccccc1`, the IC50 in test [14] was 85.3 µM (active).
For `CCOc1ccc(NC(=S)NCCCN2CCOCC2)cc1`, the concentration giving a half-maximal response (EC50) in [16] is 1.95 µM (not active).
With `CCCCCCCCCC1NC(C(=O)O)Cc2c1[nH]c1ccccc21` (centres undefined), the IC50 in test [1] was 83.3 µM (inactive); in [2] it was > 83.3 µM (inactive); in test [3], 3.75 µM (active); in test [4] it was 1.96 µM (active).
For `OC[C@@H]1[C@@H](c2ccccc2)C2(CN(Cc3ccc4c(c3)OCO4)C2)N1Cc1ccccc1`, the AC50 in test [5] is 0.619 µM (active); in test [6], 0.616 µM (active); in test [7] it was 0.444 µM (active); in test [8], 17.9 µM (active); in [9] it was > 39 µM (inactive); in [10], 0.634 µM (active).
In the case of `O=C1C(Cl)=C(N2CCOCC2)C(=O)N1c1cccc(Cl)c1`, the IC50 at Bcl-2-related protein A1 [17] was 6.37 µM (active); in test [18], > 10 µM (inconclusive); on Bcl-2-related protein A1 [19], 8.47 µM (active); at Genome polyprotein, 13.6 µM (active). In [20], the AC50 is 4.14 µM (active). The 50% effective concentration (EC50) at Protein RecA was 1.46 µM (active).
For the molecule `C[C@H](CO)N1C[C@H](C)[C@@H](CN(C)S(=O)(=O)c2ccccc2)OCCCC[C@H](C)Oc2ccc(NC(=O)Nc3ccc4c(c3)OCO4)cc2C1=O`, the AC50 in test [11] is 2.35 µM (active).
